Measurements as given in patent publication US12599599B2, “Anti-inflammatory, anti-cancer, and anti-angiogenic compounds, pharmaceutical compositions, and methods of making and using thereof” (MEDICON PHARMACEUTICALS, INC., priority 2017, dated 2026).

Tests used:
JNK = test: Activation by phosphorylation in SKOV-3 cells; format: cell-based, human
Experimental: (§1) FIGS. 12A-12C and FIGS. 13A-13C illustrate key findings related to the mechanism of action of compound 5 against ovarian cancer. The studies shown here were performed in SKOV-3 human ovarian cancer cells. FIG. 12A: Left: Compound 5 increases the percentage of cells with acridine orange staining determined by flow cytometry (4% 4→38% after treatment with compound 5) and indicating the induction of autophagy. Right: Electron micrographs show morphological features of cells undergoing autophagy. Yellow arrowheads: vacuoles; white arrowheads: autophagosomes. […] N: nucleus; ER: endoplasmic reticulum with visible ribosomes. The left micrograph shown normal ER (circled) in a vehicle-treated cell. […] The latter finding is diagnostic of ER stress. Magnification: 6,800×. FIG. 12C: Compound 5 suppresses STAT3, mTOR and JNK activation by phosphorylation, as well as the levels of COT.

mTOR = test: Activation by phosphorylation in SKOV-3 cells; format: cell-based, human
Experimental: as §1

STAT3 = test: Activation by phosphorylation in SKOV-3 cells; format: cell-based, human
Experimental: as §1

[1] = tested on: SKOV-3 human ovarian cancer cells; test: Transmission electron microscopy, ER stress; format: cell-based; settings: 1.5×IC50
Experimental: as §1

[2] = tested on: MIA PaCa2 human pancreatic cancer cells; test: In vitro synergy with tamoxifen; format: cell-based; settings: tamoxifen prior to or concurrently with compound 5
Source text: Additionally, synergy has been documented between compounds 5 and 6 individually and several chemotherapeutic and other agents, including but not limited to various camptothecins (e.g., camptothecin 11), resveratrol, gemcitabine, docetaxel, curcumin, progesterone, and methotrexate. Such synergy concerned the ability of these combinations to markedly suppress the growth of various human cancer cell lines originating in the pancreas, lung and other tissues. Furthermore, extremely efficacious was the combination of compounds 5, 6 and tamoxifen in completely suppressing the growth of K-ras mutant human pancreatic cancer cell lines.

[3] = Ocular pharmacokinetics and biodistribution after eye drops; format: in vivo, New Zealand rabbits; design: unit not given here; settings: rabbit, 20% eye drops
Experimental: The pharmacokinetics and biodistribution of compounds 1, 2, and 5 in the eye of rabbits were determined. Each of these compounds was dissolved in phosphate buffered saline (PBS) and used as eye drops. The eye drops were sterilized before application to rabbits by filtration through a 0.2 μm membrane. […] The eyes were harvested and eye tissues and the lacrimal glands were dissected, homogenized and the test compounds were extracted by acetonitrile and analyzed by HPLC, as described under Compound Synthesis described herein. Compounds 1 and 2 were detected at 328 nm, and compound 5 at 260 nm. […] All three compounds can unexpectedly, readily, and rapidly reach the posterior chamber of the eye.

COT = test: Protein levels in SKOV-3 cells; format: cell-based, human
Experimental: as §1

HCT116 colon cancer = test: 24 hr growth inhibition of cell line; format: cell-based; settings: Homo sapiens, HCT-116, 24 h
Experimental: (§2) The therapeutic efficacy of compounds 2, 5, and 6 was assessed in human and murine cell lines of varied tissue origin, and their 24 hr 50% inhibitory concentration was determined by following standard methodologies. Typical results are shown in the Table 5, indicating a broad anticancer effect.

RAW264 murine macrophage = test: 24 hr growth inhibition of cell line; format: cell-based; settings: Mus musculus, RAW264.7, 24 h
Experimental: as §2

AGS gastric cancer = test: 24 hr growth inhibition of cell line; format: cell-based; settings: Homo sapiens
Experimental: as §2

A549 lung cancer = test: 24 hr growth inhibition of cell line; format: cell-based; settings: Homo sapiens
Experimental: as §2

eIF2α = test: Phosphorylation in SKOV-3 cells (integrated stress response); format: cell-based, human
Source text: (§3) FIG. 13A: Compound 5 induces the phosphorylation of eIF2α, confirming integrated stress response. p-eIF2αinduces ATF4 that suppresses 5′-cap dependent translation initiation, shown below. […] The levels of reporter proteins used in the translation assay (Pierce™ Renilla-Firefly Luciferase Dual Assay Kit; Thermo Scientific, Grand Island, NY) were normalized to the levels of intracellular FLUC-RLUC transcripts and are shown as percent of untreated control cells. RLU=Relative light units. 5′-cap dependent translation initiation was much less and occurred later. Values: Mean±SEM; *, p<0.05 and **, p<0.01 vs. control. […] Loading controls: β-actin and GADPH.

HEY-T30 xenografts = test: Synergy with cyclophosphamide, Taxol resistant subcutaneous xenografts; format: in vivo, nude mice; settings: day 21; compound 5 10 mg/kg/day six days a week ip; cyclophosphamide 10 mg/kg six days a week orally; or both
PERK = test: Activation by phosphorylation in SKOV-3 cells; format: cell-based, human; settings: 1.5×IC50
Source text: as §3

GCN2 = test: Activation by phosphorylation in SKOV-3 cells; format: cell-based, human; settings: 1.5×IC50
Source text: as §3

[4] = tested on: 5′-cap dependent translation initiation; test: Renilla-Firefly luciferase dual translation assay in SKOV-3 cells; format: cell-based, human
Source text: as §3

Structure (SMILES): CCN(CC)CCCCNC(=O)c1ccccc1SC/C=C(\C)CC/C=C(\C)CCC=C(C)C [Compound 5]
- JNK activation by phosphorylation (JNK): suppresses
- mTOR activation by phosphorylation (mTOR): suppresses
- STAT3 activation by phosphorylation (STAT3): suppresses
- endoplasmic reticulum (ER) stress [1]: induction of endoplasmic reticulum (ER) stress
- synergy with tamoxifen on growth of MIA PaCa2 cells [2]: synergizes
- Drug level in Vitreous [3]: 0.0
- Drug level in Ciliary body ([3]; 40 min): 0.0
- Drug level in Conjunctiva ([3]; 40 min): 33.2
- Drug level in Cornea ([3]; 40 min): 75.7
- Drug level in Iris ([3]; 40 min): 0.6
- Drug level in Lens ([3]; 40 min): 0.0
- Drug level in Retina ([3]; 40 min): 1.8
- Drug level in Sclera ([3]; 40 min): 1.3
- Drug level in Ciliary body ([3]; 60 min): 4.2
- Drug level in Conjunctiva ([3]; 60 min): 35.1
- Drug level in Cornea ([3]; 60 min): 96.7
- Drug level in Iris ([3]; 60 min): 1.9
- Drug level in Lens ([3]; 60 min): 0.0
- Drug level in Retina ([3]; 60 min): 3.4
- Drug level in Sclera ([3]; 60 min): 0.6
- Drug level in Vitreous ([3]; 60 min): 0.0
- levels of COT (COT): suppresses
- IC50 (HCT116 colon cancer): 10 µM
- IC50 (RAW264 murine macrophage): 5 µM
- IC50 (AGS gastric cancer): 14 µM
- IC50 (A549 lung cancer): 19 µM
- phosphorylation of eIF2α (eIF2α): induces
- inhibition of tumor growth compared to control (HEY-T30 xenografts): 26%
- PERK activation by phosphorylation (PERK): activated by phosphorylation
- GCN2 activation by phosphorylation (GCN2): activated by phosphorylation
- 5′-cap dependent translation initiation [4]: suppresses predominantly
